Experimental data reported in patent publication US20060241122A1, “Combination therapy for the treatment of neoplasms” (priority 2003, published 2006).

Experiments:
[1] = system: non-small cell lung carcinoma A549 cells; assay: Anti-proliferation assay (Alamar Blue metabolism), A549 cells; format: cell-based; conditions: 72 h
Description: Inhibition of proliferation was measured by anti-proliferation assay as described below after incubation with the test compound(s) for 72 hours.
(§1) The combination matrices were used immediately and discarded.
Cells were diluted in culture media such that 3,000 SKMEL-28 cells, or 1,500 cells for all the other cell lines, were delivered in 35 μl of media into each assay well. Assay plates were incubated for 16-24 hours 37° C.±0.5° C. with 5% CO2. […] Assay plates were further incubated for 72 hours at 37° C.±0.5° C. with 5% CO2. […] Alamar Blue metabolism was quantified by the amount of fluorescence intensity 3.5-5.0 hours after addition.
The percent inhibition (% I) for each well was calculated using the following formula: % I=[(avg. untreated wells−treated well)/(avg. untreated wells)]×100 The average untreated well value (avg. untreated wells) is the arithmetic mean of 40 wells from the same assay plate treated with vehicle alone.

[2] = system: human pancreatic cancer PANC1 cells; assay: Anti-proliferation assay (Alamar Blue metabolism), PANC1 cells; format: cell-based; conditions: 72 h
From the text: as §1

[3] = system: human melanoma SKMEL-28 cells; assay: Anti-proliferation assay (Alamar Blue metabolism), SKMEL-28 cells; format: cell-based; conditions: 72 h
From the text: as §1

[4] = system: human prostate cancer DU145 cells; assay: Anti-proliferation assay (Alamar Blue metabolism), DU145 cells; format: cell-based; conditions: 72 h
From the text: as §1

[5] = system: human colorectal carcinoma HCT116 cells; assay: Anti-proliferation assay (Alamar Blue metabolism), HCT116 cells; conditions: for Percent inhibition of Alamar Blue Metabolism in HCT116 cells: 72 h;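 on all read-outs here: cells in 384-well plates exposed to compound combination matrices for 72 h, Alamar Blue fluorescence read (excitation 530 nm), inhibition calculated against mean of vehicle-only wells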
Description: Stock solutions (1000×) of each compound were prepared in DMSO and stored at −20° C. Master stock plates of 2-fold or 4-fold serial dilutions of individual compounds were prepared in 384-well plates. Combination matrices of test compounds were generated from these master stock plates by dilution into growth media described above. […] The combination matrices were used immediately and discarded.
The anti-proliferation assays were performed in 384-well plates. […] Cells were diluted in culture media such that 3,000 SKMEL-28 cells, or 1,500 cells for all the other cell lines, were delivered in 35 μl of media into each assay well. Assay plates were incubated for 16-24 hours 37° C.±0.5° C. with 5% CO2. After incubation, 4.5 μl of 10× stock solutions from the combination matrices were added to 40 μl of culture media. Assay plates were further incubated for 72 hours at 37° C.±0.5° C. with 5% CO2. […] Alamar Blue metabolism was quantified by the amount of fluorescence intensity 3.5-5.0 hours after addition. Quantification, using an LJL Analyst AD reader (LJL Biosystems), was taken in the middle of the well with high attenuation, a 100 msec read time, an excitation filter at 530 nm, and an emission filter at 575 nm. For some experiments, quantification was performed using a Wallac Victor^2 reader. Measurements were taken at the top of the well with stabilized energy lamp control; a 100 msec read time, an excitation filter at 530 nm, and an emission filter at 590 nm.

Structure (SMILES): CCC(C)n1ncn(-c2ccc(N3CCN(c4ccc(OCC5COC(Cn6cncn6)(c6ccc(Cl)cc6Cl)O5)cc4)CC3)cc2)c1=O (centres unmarked) [Itraconazole, itraconazole]
- Percent inhibition of Alamar Blue Metabolism in A549 cells ([1]; itraconazole 0.87 μM + simvastatin at row conc. c1 (0-48 μM)): 13.5%
- Percent inhibition of Alamar Blue Metabolism in A549 cells ([1]; itraconazole 7 μM + simvastatin at row conc. c1 (0-48 μM)): 4.0%
- Percent inhibition of Alamar Blue Metabolism in A549 cells ([1]; itraconazole 14 μM + simvastatin at row conc. c1 (0-48 μM)): 13.3%
- Percent inhibition of Alamar Blue Metabolism in A549 cells ([1]; itraconazole 28 μM + simvastatin at row conc. c1 (0-48 μM)): 13.9%
- Percent inhibition of Alamar Blue Metabolism in PANC1 cells ([2]; Table 4: itraconazole 0.87 μM + simvastatin at row conc. c1 (0-48 μM)): 2.6%
- Percent inhibition of Alamar Blue Metabolism in PANC1 cells ([2]; Table 4: itraconazole 7 μM + simvastatin at row conc. c1 (0-48 μM)): −2.6%
- Percent inhibition of Alamar Blue Metabolism in PANC1 cells ([2]; Table 4: itraconazole 14 μM + simvastatin at row conc. c1 (0-48 μM)): 2.1%
- Percent inhibition of Alamar Blue Metabolism in PANC1 cells ([2]; Table 4: itraconazole 28 μM + simvastatin at row conc. c1 (0-48 μM)): 1.7%
- Percent inhibition of Alamar Blue Metabolism in PANC1 cells ([2]; Table 8: itraconazole 0.87 μM + atorvastatin at row conc. c1 (0-36 μM)): 9.8%
- Percent inhibition of Alamar Blue Metabolism in PANC1 cells ([2]; Table 8: itraconazole 7 μM + atorvastatin at row conc. c1 (0-36 μM)): −0.6%
- Percent inhibition of Alamar Blue Metabolism in PANC1 cells ([2]; Table 8: itraconazole 14 μM + atorvastatin at row conc. c1 (0-36 μM)): −4.4%
- Percent inhibition of Alamar Blue Metabolism in PANC1 cells ([2]; Table 8: itraconazole 28 μM + atorvastatin at row conc. c1 (0-36 μM)): −2.5%
- Percent inhibition of Alamar Blue Metabolism in PANC1 cells ([2]; Table 12: itraconazole 0.87 μM + fluvastatin at row conc. c1 (0-49 μM)): 4.9%
- Percent inhibition of Alamar Blue Metabolism in PANC1 cells ([2]; Table 12: itraconazole 7 μM + fluvastatin at row conc. c1 (0-49 μM)): −1.9%
- Percent inhibition of Alamar Blue Metabolism in PANC1 cells ([2]; Table 12: itraconazole 14 μM + fluvastatin at row conc. c1 (0-49 μM)): −8.1%
- Percent inhibition of Alamar Blue Metabolism in PANC1 cells ([2]; Table 12: itraconazole 28 μM + fluvastatin at row conc. c1 (0-49 μM)): −3.7%
- Percent inhibition of Alamar Blue Metabolism in SKMEL-28 cells ([3]; Table 5: itraconazole 0.87 μM + simvastatin at row conc. c1 (0-48 μM)): 1.0%
- Percent inhibition of Alamar Blue Metabolism in SKMEL-28 cells ([3]; Table 5: itraconazole 7 μM + simvastatin at row conc. c1 (0-48 μM)): 13.5%
- Percent inhibition of Alamar Blue Metabolism in SKMEL-28 cells ([3]; Table 5: itraconazole 14 μM + simvastatin at row conc. c1 (0-48 μM)): 19.3%
- Percent inhibition of Alamar Blue Metabolism in SKMEL-28 cells ([3]; Table 5: itraconazole 28 μM + simvastatin (0-48 μM)): 16.7%
- Percent inhibition of Alamar Blue Metabolism in SKMEL-28 cells ([3]; Table 9: itraconazole 0.87 μM + atorvastatin at row conc. c1 (0-36 μM)): 1.4%
- Percent inhibition of Alamar Blue Metabolism in SKMEL-28 cells ([3]; Table 9: itraconazole 7 μM + atorvastatin at row conc. c1 (0-36 μM)): 11.2%
- Percent inhibition of Alamar Blue Metabolism in SKMEL-28 cells ([3]; Table 9: itraconazole 14 μM + atorvastatin at row conc. c1 (0-36 μM)): 13.0%
- Percent inhibition of Alamar Blue Metabolism in SKMEL-28 cells ([3]; Table 9: itraconazole 28 μM + atorvastatin at row conc. c1 (0-36 μM)): 13.5%
- Percent inhibition of Alamar Blue Metabolism in SKMEL-28 cells ([3]; Table 13: itraconazole 0.87 μM + fluvastatin at row conc. c1 (0-49 μM)): 2.8%
- Percent inhibition of Alamar Blue Metabolism in SKMEL-28 cells ([3]; Table 13: itraconazole 7 μM + fluvastatin at row conc. c1 (0-49 μM)): 11.3%
- Percent inhibition of Alamar Blue Metabolism in SKMEL-28 cells ([3]; Table 13: itraconazole 14 μM + fluvastatin at row conc. c1 (0-49 μM)): 13.3%
- Percent inhibition of Alamar Blue Metabolism in SKMEL-28 cells ([3]; Table 13: itraconazole 28 μM + fluvastatin at row conc. c1 (0-49 μM)): 16.3%
- Percent inhibition of Alamar Blue Metabolism in DU145 cells ([4]; Table 6: itraconazole 0.87 μM + atorvastatin at row conc. c1 (0-36 μM)): 0.8%
- Percent inhibition of Alamar Blue Metabolism in DU145 cells ([4]; Table 6: itraconazole 7 μM + atorvastatin at row conc. c1 (0-36 μM)): −3.5%
- Percent inhibition of Alamar Blue Metabolism in DU145 cells ([4]; Table 6: itraconazole 14 μM + atorvastatin at row conc. c1 (0-36 μM)): −4.2%
- Percent inhibition of Alamar Blue Metabolism in DU145 cells ([4]; Table 6: itraconazole 28 μM + atorvastatin at row conc. c1 (0-36 μM)): −8.8%
- Percent inhibition of Alamar Blue Metabolism in DU145 cells ([4]; Table 10: itraconazole 0.87 μM + fluvastatin at row conc. c1 (0-49 μM)): 2.1%
- Percent inhibition of Alamar Blue Metabolism in DU145 cells ([4]; Table 10: itraconazole 7 μM + fluvastatin at row conc. c1 (0-49 μM)): −7.4%
- Percent inhibition of Alamar Blue Metabolism in DU145 cells ([4]; Table 10: itraconazole 14 μM + fluvastatin at row conc. c1 (0-49 μM)): −5.6%
- Percent inhibition of Alamar Blue Metabolism in DU145 cells ([4]; Table 10: itraconazole 28 μM + fluvastatin at row conc. c1 (0-49 μM)): −9.0%
- inhibition at 7 µM ([5]; Homo sapiens, HCT-116, read-out: Percent inhibition of Alamar Blue Metabolism, cerivastatin 0 μM, itraconazole 7 μM): 24.3%
- inhibition at 28 µM ([5]; Homo sapiens, HCT-116, read-out: Percent inhibition of Alamar Blue Metabolism, cerivastatin 0 μM, itraconazole 28 μM): 27.7%
- Percent inhibition of Alamar Blue Metabolism in HCT116 cells ([5]; Table 2: itraconazole 0.87 μM + simvastatin at row conc. c1 (0-48 μM)): 3.9%
- Percent inhibition of Alamar Blue Metabolism in HCT116 cells ([5]; Table 2: itraconazole 7 μM + simvastatin at row conc. c1 (0-48 μM)): 18.9%
- Percent inhibition of Alamar Blue Metabolism in HCT116 cells ([5]; Table 2: itraconazole 14 μM + simvastatin at row conc. c1 (0-48 μM)): 19.2%
- Percent inhibition of Alamar Blue Metabolism in HCT116 cells ([5]; Table 2: itraconazole 28 μM + simvastatin at row conc. c1 (0-48 μM)): 18.6%
- Percent inhibition of Alamar Blue Metabolism in HCT116 cells ([5]; Table 3: itraconazole 0.87 μM + simvastatin sodium at row conc. c1 (0-22 μM)): −10.7%
- Percent inhibition of Alamar Blue Metabolism in HCT116 cells ([5]; Table 3: itraconazole 7 μM + simvastatin sodium at row conc. c1 (0-22 μM)): 12.2%
- Percent inhibition of Alamar Blue Metabolism in HCT116 cells ([5]; Table 3: itraconazole 14 μM + simvastatin sodium at row conc. c1 (0-22 μM)): 10.6%
- Percent inhibition of Alamar Blue Metabolism in HCT116 cells ([5]; Table 3: itraconazole 28 μM + simvastatin sodium at row conc. c1 (0-22 μM)): 17.2%
- Percent inhibition of Alamar Blue Metabolism in HCT116 cells ([5]; Table 7: itraconazole 0.87 μM + atorvastatin at row conc. c1 (0-36 μM)): 1.7%
- Percent inhibition of Alamar Blue Metabolism in HCT116 cells ([5]; Table 7: itraconazole 7 μM + atorvastatin at row conc. c1 (0-36 μM)): 17.4%
- Percent inhibition of Alamar Blue Metabolism in HCT116 cells ([5]; Table 7: itraconazole 14 μM + atorvastatin at row conc. c1 (0-36 μM)): 18.1%
- Percent inhibition of Alamar Blue Metabolism in HCT116 cells ([5]; Table 7: itraconazole 28 μM + atorvastatin at row conc. c1 (0-36 μM)): 18.6%
- Percent inhibition of Alamar Blue Metabolism in HCT116 cells ([5]; Table 11: itraconazole 0.87 μM + fluvastatin at row conc. c1 (0-49 μM)): 2.2%
- Percent inhibition of Alamar Blue Metabolism in HCT116 cells ([5]; Table 11: itraconazole 7 μM + fluvastatin at row conc. c1 (0-49 μM)): 18.9%
- Percent inhibition of Alamar Blue Metabolism in HCT116 cells ([5]; Table 11: itraconazole 14 μM + fluvastatin at row conc. c1 (0-49 μM)): 20.2%
- Percent inhibition of Alamar Blue Metabolism in HCT116 cells ([5]; Table 11: itraconazole 28 μM + fluvastatin at row conc. c1 (0-49 μM)): 20.4%
- Percent inhibition of Alamar Blue Metabolism in HCT116 cells ([5]; Table 14: itraconazole 0.87 μM + lovastatin at row conc. c1 (0-48 μM)): 5.1%
- Percent inhibition of Alamar Blue Metabolism in HCT116 cells ([5]; Table 14: itraconazole 7 μM + lovastatin at row conc. c1 (0-48 μM)): 17.8%
- Percent inhibition of Alamar Blue Metabolism in HCT116 cells ([5]; Table 14: itraconazole 14 μM + lovastatin at row conc. c1 (0-48 μM)): 19.5%
- Percent inhibition of Alamar Blue Metabolism in HCT116 cells ([5]; Table 14: itraconazole 28 μM + lovastatin at row conc. c1 (0-48 μM)): 20.7%
- Percent inhibition of Alamar Blue Metabolism in HCT116 cells ([5]; Table 15: itraconazole 0.87 μM + lovastatin sodium at row conc. c1 (0-22 μM)): −10.9%
- Percent inhibition of Alamar Blue Metabolism in HCT116 cells ([5]; Table 15: itraconazole 7 μM + lovastatin sodium at row conc. c1 (0-22 μM)): 18.0%
- Percent inhibition of Alamar Blue Metabolism in HCT116 cells ([5]; Table 15: itraconazole 14 μM + lovastatin sodium at row conc. c1 (0-22 μM)): 15.1%
- Percent inhibition of Alamar Blue Metabolism in HCT116 cells ([5]; Table 15: itraconazole 28 μM + lovastatin sodium at row conc. c1 (0-22 μM)): 9.1%
